Source: patent publication US20180008587A1, “THIOHYDANTOIN ANDROGEN RECEPTOR ANTAGONISTS FOR THE TREATMENT OF CANCER” (Jaressen Pharmaceutica NV, priority 2016, published 2018)

How the values were obtained:
[1] = tested on: LNCaP SRα F876L tumors; assay: Castrate resistant prostate cancer xenograft study; assay type: in vivo, mouse; conditions: castrate SHO mice
Description: Castrate six to seven week old male SCID Hairless Outbred mice (SHO, Charles Rivers Laboratories) were used as the host strain for xenograft studies. LNCaP SRα F876L tumors were established in host mice and the anti-tumor activity of compounds defined herein was determined. Dosing was initiated when tumors reached 100 to 200 mm^3 and animals were randomized to each of test groups (vehicle (HP-β-CD), 10 mg/kg, 30 mg/kg or 50 mg/kg compound). Compound was dosed orally, QD, for 28 days and tumor size was measured twice weekly along with body weight measurement. At the end of study, the TGI was calculated using initial tumor volume and final tumor volume measurements. TGI: 100−(Treated/Control*100). At the termination of study tumors were collected and stored for further analyses.

[2] = tested on: androgen dependent signaling; assay: Hershberger assay; assay type: in vivo, rat; conditions: castrated rats, mean ± SD (n=6)
Description: The effect of AR antagonists on androgen dependent signaling in vivo was assessed using the Hershberger assay. In this assay, peripubertal castrated male Sprague-Dawley rats were administered AR antagonists described herein in the presence of testosterone (0.4 mg/kg testosterone propionate) and the weights of androgen dependent organs measured. Dosing was continued for 10 days and measurements taken 24 h after the last dose. The extent of antagonism of AR and consequent inhibition of organ growth was evaluated by comparison to the castration control. Compounds of Formula (I) were dosed orally QD and an endpoint assessment made by change in weight of 5 androgen sensitive organs (ASO): Paired Cowper's Glands (CG), Seminal Vesicles with Fluids and Coagulating Glands (SVCG), Glans Penis (GP), Ventral Prostate (VP) and Levator Ani-Bulbocavernosus Complex (LABC)). According to assay guidelines, statistically significant suppression of ASO is required in 2 of 5 organs for a compound to be classified as an anti-androgen (analysis was performed by t-test/Mann-Whitney).
Compounds defined herein were administered at the indicated dose (mg/kg) and flutamide (FT), positive control, at 3 mg/kg. All compounds were co-administered with testosterone propionate (TP, 0.4 mg/kg) which was also administered alone, untreated control, (castrated only rats served as the control for complete androgen blockade). A statistically significant change in ASO achieved in at least 2 of 5 organs was indicative of an active compound.

[3] = biological target: T1, AR T877A (Homo sapiens, UniProt P10275, T878A); assay: Luciferase transcriptional reporter assay, mutant AR, HepG2, antagonist mode; assay type: cell-based; conditions: HepG2, 90 pM R1881, 48 hours; * denotes incomplete inhibition (otherwise 100%); read-out: Antagonism; IC50, AR construct T877A
T1 construct: expressed in transfected cells; host or cells: HepG2
T1 sequence (P10275 1-920 T878A): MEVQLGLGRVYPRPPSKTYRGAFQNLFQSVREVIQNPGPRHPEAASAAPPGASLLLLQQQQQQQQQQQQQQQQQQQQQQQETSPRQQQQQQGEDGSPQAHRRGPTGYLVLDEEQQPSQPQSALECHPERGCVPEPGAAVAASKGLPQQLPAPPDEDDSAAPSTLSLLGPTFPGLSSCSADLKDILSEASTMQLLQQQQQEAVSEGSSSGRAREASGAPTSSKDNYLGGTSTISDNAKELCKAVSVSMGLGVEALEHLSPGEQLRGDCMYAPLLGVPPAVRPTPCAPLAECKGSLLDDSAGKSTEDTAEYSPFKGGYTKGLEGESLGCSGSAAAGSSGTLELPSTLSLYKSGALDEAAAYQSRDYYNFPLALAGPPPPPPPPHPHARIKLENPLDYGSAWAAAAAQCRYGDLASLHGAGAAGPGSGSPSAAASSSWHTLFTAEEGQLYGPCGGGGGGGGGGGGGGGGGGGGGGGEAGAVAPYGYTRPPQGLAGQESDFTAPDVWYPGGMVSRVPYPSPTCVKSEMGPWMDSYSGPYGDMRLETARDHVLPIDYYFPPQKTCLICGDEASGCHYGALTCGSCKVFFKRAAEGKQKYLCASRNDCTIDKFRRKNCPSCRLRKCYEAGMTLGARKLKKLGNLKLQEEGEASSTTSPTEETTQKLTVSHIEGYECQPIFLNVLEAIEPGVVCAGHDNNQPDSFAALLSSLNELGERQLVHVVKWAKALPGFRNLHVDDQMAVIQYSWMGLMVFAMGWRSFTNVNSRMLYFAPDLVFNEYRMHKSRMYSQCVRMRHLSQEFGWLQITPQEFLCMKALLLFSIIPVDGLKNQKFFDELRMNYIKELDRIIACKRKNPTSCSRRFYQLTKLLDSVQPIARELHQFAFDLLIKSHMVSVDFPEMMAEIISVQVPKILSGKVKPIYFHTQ
Description: HepG2 cells were maintained in EMEM supplemented with 10% FBS. One day before transfection, the media was changed to EMEM with 10% CSS. T-150 flasks were transiently transfected using 120 μL Lipofectamine 2000 (Life Technologies), 30 μg mutant cDNA (expression vector)—mutant cDNA tested were L701H, T877A, W741C and H874Y—and 40 μg 4×ARE-Luciferase (reporter vector) in OptiMEM and the flasks were incubated overnight. Cells were then trypsinized, counted and resuspended at 500,000 cells/mL. For agonist mode, the compounds of Formula (I) are serially diluted and 50 μL of the compound added per well. 50 μL of the cells are added to each well and incubated for 48 hours. For antagonist mode, a final concentration of 90 pM R1881 was added to the diluted compounds and incubated for 48 hours. The plates were then assayed using SteadyGlo and read on the Envision. Percent Stimulation and Inhibition is determined and analyzed using GraphPad Prism.
All values are calculated relative to the activity of R1881 induced androgen receptor activity (n≧3).

[4] = 30 mg/kg orally QD 10 days with testosterone propionate 0.4 mg/kg
[5] = 3 mg/kg orally QD 10 days with testosterone propionate 0.4 mg/kg
[6] = 10 mg/kg orally QD 10 days with testosterone propionate 0.4 mg/kg

SMILES	TGI (%) ([1]; 30 mg/kg orally QD 28 days)	ASO Organ Growth (% of TP control) SVCG [2, 4]	ASO Organ Growth (% of TP control) VP [2, 4]	IC50 [3] [µM]	TGI (%) ([1]; 10 mg/kg orally QD 28 days)	ASO Organ Growth (% of TP control) SVCG [2, 5]	ASO Organ Growth (% of TP control) VP [2, 5]	ASO Organ Growth (% of TP control) SVCG [2, 6]	ASO Organ Growth (% of TP control) VP [2, 6]
N#Cc1ncc(N2C(=O)C3(CCC3)N(c3ccc(OC4CCNCC4)cc3)C2=S)cc1C(F)(F)F [Cpd 35, 5-[5-oxo-8-[4-(4-piperidyloxy)phenyl]-7-thioxo-6,8-diazaspiro[3.4]octan-6-yl]-3-(trifluoromethyl)pyridine-2-carbonitrile]	53	28.1 ± 19.5 % of TP control	25.7 ± 22.9 % of TP control	3.59					
N#Cc1ncc(N2C(=O)C3(CCC3)N(c3ccc(C(=O)NCCCO)c(F)c3)C2=S)cc1C(F)(F)F [Cpd 40, 4-[6-[6-cyano-5-(trifluoromethyl)-3-pyridyl]-5-oxo-7-thioxo-6,8-diazaspiro[3.4]octan-8-yl]-2-fluoro-N-(3-hydroxypropyl)benzamide]				7.51					
CN1CCC(Oc2ccc(N3C(=S)N(c4cnc(C#N)c(C(F)(F)F)c4)C(=O)C34CCC4)cc2)CC1 [Cpd 85, 5-[8-[4-[(1-methyl-4-piperidyl)oxy]phenyl]-5-oxo-7-thioxo-6,8-diazaspiro[3.4]octan-6-yl]-3-(trifluoromethyl)pyridine-2-carbonitrile]	100.8	8.5 ± 14.7 % of TP control	13.2 ± 19.2 % of TP control		80.2	67.3 ± 20.2 % of TP control	72.3 ± 18.5 % of TP control	31.6 ± 37.7 % of TP control	37.4 ± 25.6 % of TP control
